What is called IC50 is the midpoint of a concentration-inhibition curve.

Results on 22 molecules are retold here after US11040981B2, “Pyrrolotriazine compounds and methods of inhibiting TAM kinases” (Syros Pharmaceuticals, Inc., priority 2017, dated 2021).

One assay concerns the target T1, TYRO3 (Homo sapiens, UniProt Q06418).
T1 sequence (Q06418 41-890): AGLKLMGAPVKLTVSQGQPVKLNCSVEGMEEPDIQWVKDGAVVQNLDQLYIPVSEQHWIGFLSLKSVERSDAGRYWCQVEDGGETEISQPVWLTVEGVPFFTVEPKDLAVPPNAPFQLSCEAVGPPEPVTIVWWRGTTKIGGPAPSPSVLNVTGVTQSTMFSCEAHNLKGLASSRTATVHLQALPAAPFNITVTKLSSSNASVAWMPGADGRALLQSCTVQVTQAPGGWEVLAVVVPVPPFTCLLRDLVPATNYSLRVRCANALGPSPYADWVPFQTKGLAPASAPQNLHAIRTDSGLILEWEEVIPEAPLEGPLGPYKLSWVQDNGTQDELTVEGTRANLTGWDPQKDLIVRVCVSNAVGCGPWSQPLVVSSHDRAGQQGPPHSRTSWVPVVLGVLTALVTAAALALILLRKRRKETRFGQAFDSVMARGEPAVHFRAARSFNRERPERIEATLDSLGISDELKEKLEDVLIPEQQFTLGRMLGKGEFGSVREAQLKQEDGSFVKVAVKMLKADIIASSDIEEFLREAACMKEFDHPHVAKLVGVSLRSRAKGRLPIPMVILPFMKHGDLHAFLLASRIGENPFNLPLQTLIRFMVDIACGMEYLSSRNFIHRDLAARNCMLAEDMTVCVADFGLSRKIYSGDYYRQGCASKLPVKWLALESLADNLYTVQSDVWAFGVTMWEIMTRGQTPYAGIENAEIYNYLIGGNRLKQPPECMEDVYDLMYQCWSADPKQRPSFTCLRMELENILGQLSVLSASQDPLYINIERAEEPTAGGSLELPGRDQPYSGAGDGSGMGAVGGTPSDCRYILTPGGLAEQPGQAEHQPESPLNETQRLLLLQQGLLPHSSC
The assay is described as follows: TR-FRET kinase activity assay, TYRO3. The class given is biochemical. Particulars: ATP at Km, 60 minutes. The gist of the method: (§1)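 Inhibition is measured as loss of phospho-peptide formation: kinase, fluorescent tyrosine peptide and compound are combined, ATP is added at Km, and the reaction proceeds 60 min at RT in pH 7.5 HEPES buffer. An EDTA stop and Eu-labelled phospho-specific antibody allow TR-FRET detection for IC50 fitting.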
Background: In TR-FRET formats the signal depends on donor and acceptor labels being close together.

Another assay deals with T2, MERTK (Homo sapiens, UniProt Q12866).
T2 sequence (Q12866 21-999): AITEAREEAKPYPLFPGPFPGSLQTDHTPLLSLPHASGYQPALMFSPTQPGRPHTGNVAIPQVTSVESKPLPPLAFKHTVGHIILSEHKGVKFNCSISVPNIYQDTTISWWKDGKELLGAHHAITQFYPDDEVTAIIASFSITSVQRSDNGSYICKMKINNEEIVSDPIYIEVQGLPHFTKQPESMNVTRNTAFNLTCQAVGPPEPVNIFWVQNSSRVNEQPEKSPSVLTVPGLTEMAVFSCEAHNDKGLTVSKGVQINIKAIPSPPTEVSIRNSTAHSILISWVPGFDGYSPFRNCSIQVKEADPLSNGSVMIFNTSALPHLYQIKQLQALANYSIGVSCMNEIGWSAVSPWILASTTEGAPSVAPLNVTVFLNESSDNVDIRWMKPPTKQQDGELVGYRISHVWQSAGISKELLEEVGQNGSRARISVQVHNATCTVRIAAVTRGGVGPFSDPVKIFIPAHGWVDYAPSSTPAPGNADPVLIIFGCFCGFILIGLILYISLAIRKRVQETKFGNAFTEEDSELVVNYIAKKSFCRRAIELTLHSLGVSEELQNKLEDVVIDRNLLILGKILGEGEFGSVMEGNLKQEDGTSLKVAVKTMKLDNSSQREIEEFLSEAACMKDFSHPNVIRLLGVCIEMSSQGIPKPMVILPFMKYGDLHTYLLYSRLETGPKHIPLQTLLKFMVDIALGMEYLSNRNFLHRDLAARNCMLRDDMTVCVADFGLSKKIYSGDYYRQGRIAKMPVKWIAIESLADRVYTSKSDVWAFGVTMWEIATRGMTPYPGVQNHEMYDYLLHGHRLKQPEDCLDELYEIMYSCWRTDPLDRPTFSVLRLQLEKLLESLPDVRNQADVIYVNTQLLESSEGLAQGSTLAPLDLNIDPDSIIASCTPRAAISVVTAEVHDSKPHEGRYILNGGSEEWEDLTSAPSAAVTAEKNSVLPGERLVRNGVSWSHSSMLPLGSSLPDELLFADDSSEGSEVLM
The assay is described as follows: TR-FRET kinase activity assay, MERTK. Format: biochemical. Particulars: for IC50: TR-FRET activity assay, ATP at Km, 60 minutes, read-out: Mer IC50. In outline: as §1

[1] abbreviates: ratio of Mer to FLT3: FLT3 IC50/Mer IC50.
[2] abbreviates: ratio calculated as FLT3 IC50/Mer IC50.

Regarding `COC[C@H](C)Nc1ncc2c(-c3cnn(CC4CCCO4)c3)cc([C@H]3CC[C@H](O)CC3)n2n1` (stereo partly drawn) [Compound 380], the IC50 against TYRO3 and at MERTK was at most 100 nM each time. In addition, the “FLT3/Mer ratio (FLT3 IC50/Mer IC50)” value at MERTK (setting [1]) is listed as “+++ (“+++” represents a ratio of >100)”.
`COCC(C)Nc1ncc2c(C3CCN(C(C)=O)C3)cc(C3CCC(O)CC3)n2n1` (mixture of isomers) [Compound 383]: the IC50 on TYRO3 and at MERTK was at most 100 nM each time. Moreover, at MERTK (setting [1]), the “FLT3/Mer ratio (FLT3 IC50/Mer IC50)” value is “+++ (“+++” represents a ratio of >100)”.
`COC[C@H](C)Nc1ncc2c([C@@H]3CCCN(C(C)=O)C3)cc([C@H]3CC[C@H](O)CC3)n2n1` [Compound 372]: the IC50 against TYRO3 is 1000 to 10000 nM; on MERTK, 100 to 1000 nM. In addition, the “FLT3/Mer ratio (FLT3 IC50/Mer IC50)” value on MERTK (setting [1]) is “++ (“++” represents a ratio of between 10 and 100)”.
Take `COC[C@H](C)Nc1ncc2c(-c3ccnc(O[C@@H]4CCCNC4)c3)cc([C@H]3CC[C@H](O)CC3)n2n1` [Compound 390]: the IC50 on TYRO3 and at MERTK was at most 100 nM in each case. Further, the “FLT3/Mer ratio (FLT3 IC50/Mer IC50)” value at MERTK (setting [1]) was “+++ (“+++” represents a ratio of >100)”.
With `COC[C@H](C)Nc1ncc2c(-c3cnn(CCC#N)c3)cc([C@H]3CC[C@](C)(O)CC3)n2n1` [Compound 382], the IC50 against TYRO3 and on MERTK was at most 100 nM in each case. Also, the “FLT3/Mer ratio (FLT3 IC50/Mer IC50)” value on MERTK (setting [1]) is on record as “+++ (“+++” represents a ratio of >100)”.
With `O[C@H]1CC[C@H](c2cc(-c3ccnc(N4CCOCC4)c3)c3cnc(NCCC(F)(F)F)nn32)CC1` [Compound 363], the IC50 at TYRO3 and on MERTK was at most 100 nM in each case. The “FLT3/Mer ratio (FLT3 IC50/Mer IC50)” value on MERTK (setting [1]) was “+ (“+” represents a ratio of >2.0 and <10)”.
`COC[C@H](C)Nc1ncc2c(-c3ccnc(N4CCOCC4)c3)cc([C@H]3CC[C@H](O)CC3)n2n1` [Compound 355]: the IC50 against TYRO3 and on MERTK was at most 100 nM in each case. Also, on MERTK (setting [1]), the “FLT3/Mer ratio (FLT3 IC50/Mer IC50)” value is “+ (“+” represents a ratio of >2.0 and <10)”.
With `CNS(=O)(=O)c1ccc(-c2cc([C@H]3CC[C@H](O)CC3)n3nc(N[C@@H](C)CC(F)(F)F)ncc23)cn1` [Compound 360], the IC50 against TYRO3 and on MERTK was at most 100 nM in each case. Moreover, the “FLT3/Mer ratio (FLT3 IC50/Mer IC50)” value on MERTK (setting [1]) is “++ (“++” represents a ratio of between 10 and 100)”.
Regarding `COC[C@H](C)Nc1ncc2c(-c3ccnc(O[C@H]4CCCN(C)C4)c3)cc([C@H]3CC[C@H](O)CC3)n2n1` [Compound 403], the IC50 against TYRO3 and at MERTK was at most 100 nM throughout. Also, at MERTK (setting [2]), the “FLT3/Mer ratio (FLT3 IC50/Mer IC50)” value is on record as “+++ (“+++” represents a ratio of >100)”.
As to `COC[C@H](C)Nc1ncc2c(-c3cnn(CC4COC4)c3)cc([C@H]3CC[C@H](O)CC3)n2n1` [Compound 420], the IC50 against TYRO3 and on MERTK was at most 100 nM in each case. In addition, the “FLT3/Mer ratio (FLT3 IC50/Mer IC50)” value on MERTK (setting [2]) is reported as “+++ (“+++” represents a ratio of >100)”.
Turning to `COC[C@H](C)Nc1ncc2c(-c3ccnc(O[C@H]4CCCNC4)c3)cc([C@H]3CC[C@H](O)CC3)n2n1` [Compound 389], the IC50 against TYRO3 and at MERTK was at most 100 nM in each case. For the same molecule, the “FLT3/Mer ratio (FLT3 IC50/Mer IC50)” value on MERTK (setting [1]) is “+++ (“+++” represents a ratio of >100)”.
On to `CCCCC[C@H](C)Nc1ncc2c(C3=CCC(C(=O)O)CC3)cc([C@H]3CC[C@H](O)CC3)n2n1` (stereo partly drawn) [Compound 122, 4-(2-((S)-heptan-2-ylamino)-7-((trans)-4-hydroxycyclohexyl)pyrrolo[2,1-f][1,2,4]triazin-5-yl)cyclohex-3-enecarboxylic acid], for which the IC50 against TYRO3 and on MERTK was at most 100 nM throughout. Also, at MERTK (setting [1]), the “FLT3/Mer ratio (FLT3 IC50/Mer IC50)” value was “+++ (“+++” represents a ratio of >100)”.
Turning to `COC[C@H](C)Nc1ncc2c(-c3ccnc(N[C@@H]4CCOC4)c3)cc([C@H]3CC[C@H](O)CC3)n2n1` [Compound 416], the IC50 against TYRO3 and on MERTK was at most 100 nM throughout. Further, the “FLT3/Mer ratio (FLT3 IC50/Mer IC50)” value on MERTK (setting [2]) is “+++ (“+++” represents a ratio of >100)”.
`COC[C@H](C)Nc1ncc2c(-c3ccnc(C)c3)cc([C@H]3CC[C@@](C)(O)CC3)n2n1` [Compound 381]: the IC50 at TYRO3 and at MERTK was at most 100 nM throughout. The “FLT3/Mer ratio (FLT3 IC50/Mer IC50)” value at MERTK (setting [1]) is recorded as “+++ (“+++” represents a ratio of >100)”.
As for `COC[C@H](C)Nc1ncc2c(-c3cnn(CC4CCOCC4)c3)cc([C@H]3CC[C@H](O)CC3)n2n1` [Compound 392], the IC50 on TYRO3 and at MERTK was at most 100 nM each time. Also, on MERTK (setting [1]), the “FLT3/Mer ratio (FLT3 IC50/Mer IC50)” value is reported as “+++ (“+++” represents a ratio of >100)”.
On to `CNC(=O)c1ncc(-c2cc([C@H]3CC[C@H](O)CC3)n3nc(N[C@@H](C)CC(F)(F)F)ncc23)cn1` [Compound 347], for which the IC50 on TYRO3 and on MERTK was at most 100 nM each time. Moreover, the “FLT3/Mer ratio (FLT3 IC50/Mer IC50)” value on MERTK (setting [1]) is “+++ (“+++” represents a ratio of >100)”.
For the molecule `COCC(C)Nc1ncc2c(C3CCN(c4ccnc(C)n4)C3)cc(C3CCC(O)CC3)n2n1` (stereo not drawn) [Compound 373], the IC50 against TYRO3 and on MERTK was at most 100 nM in each case. The “FLT3/Mer ratio (FLT3 IC50/Mer IC50)” value on MERTK (setting [1]) is reported as “+++ (“+++” represents a ratio of >100)”.
As for `CC(COC(F)F)Nc1ncc2c(-c3cnn(C(C)(C)C(=O)N4CCOCC4)c3)cc(C3CCC(O)CC3)n2n1` (stereo not drawn) [Compound 393], the IC50 at TYRO3 and at MERTK was at most 100 nM in each case. The “FLT3/Mer ratio (FLT3 IC50/Mer IC50)” value at MERTK (setting [1]) is recorded as “+++ (“+++” represents a ratio of >100)”.
As for `CNC(=O)c1ncc(-c2cc([C@H]3CC[C@H](O)CC3)n3nc(N[C@@H](C)COC(F)F)ncc23)cn1` [Compound 407], the IC50 on TYRO3 and on MERTK was at most 100 nM each time. On MERTK (setting [2]), the “FLT3/Mer ratio (FLT3 IC50/Mer IC50)” value was “+++ (“+++” represents a ratio of >100)”.
`COC[C@H](C)Nc1ncc2c(-c3ccnc(O[C@@H]4CCCN(C)C4)c3)cc([C@H]3CC[C@H](O)CC3)n2n1` [Compound 404]: the IC50 on TYRO3 and at MERTK was at most 100 nM throughout. Besides, the “FLT3/Mer ratio (FLT3 IC50/Mer IC50)” value on MERTK (setting [2]) is “+++ (“+++” represents a ratio of >100)”.
With `COC[C@H](C)Nc1ncc2c(-c3ccc(CN4CCN(C)CC4)cc3)cc([C@H]3CC[C@H](O)CC3)n2n1` (single isomer, unassigned) [Compound 124], the IC50 at TYRO3 and at MERTK was at most 100 nM throughout. The “FLT3/Mer ratio (FLT3 IC50/Mer IC50)” value at MERTK (setting [1]) is “++ (“++” represents a ratio of between 10 and 100)”.
In the case of `COC[C@H](C)Nc1ncc2c(-c3cnn(C4CCN(C)C4=O)c3)cc([C@H]3CC[C@H](O)CC3)n2n1` (stereo partly drawn) [Compound 394, 3-(4-(7-((trans)-4-hydroxycyclohexyl)-2-(((S)-1-methoxypropan-2-yl)amino)pyrrolo[2,1-f][1,2,4]triazin-5-yl)-1H-pyrazol-1-yl)-1-methylpyrrolidin-2-one], the 50% inhibitory concentration (IC50) on TYRO3 and at MERTK was at most 100 nM throughout. Moreover, the “FLT3/Mer ratio (FLT3 IC50/Mer IC50)” value on MERTK (setting [1]) is given as “+++ (“+++” represents a ratio of >100)”.
